Here are results for 1 substance from patent US20220323626A1, “Compositions, Kits, Methods and Uses for Preventing Microbial Growth” (Collidion, Inc., priority 2019, published 2022).

This assay concerns Staphylococcus aureus (ATCC 29213). Kind of assay: Microbiostatic assay: antimicrobial effectiveness test according to USP-51, viable colony counts over 28 days. It is filed as cell-based. The note with it: inferred from the initial assays (7-log reduction at 0.5 ppm and above). The protocol:
To prepare stock cultures of pathogenic bacteria, 10 mL nutrient broth was inoculated using a stock culture of Staphylococcus aureus (ATCC 29213) and incubated on an orbital shaker for 24±2 hours at approximately 150 rpm at 36±1° C. This culture was used to inoculate Tryptic Soy Agar (TSA) plates. Each plate was inoculated with the culture. Each plate was incubated for up to 48 hours at 30° C. to 35° C. Following incubation, suspensions were prepared by adding growth from TSA plates into a tube containing sterile water. Each tube was then vortexed and an aliquot was serially diluted and plated onto TSA plate for further numeration. The final numeration count uses aliquot volume, count obtained on TSA plate and the total original volume of culture. […]
Each composition was tested over a seven log dilution series of pathogen bacteria assays by preparing samples containing 200 μL of a pathogenic bacteria suspension, 20 μL of an organic load, and 20,000 μL of a composition disclosed herein. […] The presence of viable bacteria was then measured by counting the number of colonies observed on the agar medium for each assay sample. Log reduction is determined by taking the log10 of the number calculated by taking the number of viable pathogenic bacteria colonies present in the assay sample without serum divided by the number of viable pathogenic bacteria colonies present in the assay sample with serum. […]

For hypochlorous acid, the “minimum microbiocidal concentration of hypochlorous acid or free available chlorine in the disclosed compositions” value was “approximately 0.5 ppm”.
